Read-outs that look alike come from different tables or passages of the source.
Experiments:
[1] = in vitro; details: human, Toxicity IC50 (nM) ± SD, HDF, healthy cell line HDF, SRB assay, 72 h exposure
[2] = tested on: PC-3 (human prostate cancer cell line); test: cells; format: cell-based; details: Homo sapiens; SRB assay, 72 h exposure; read-out: Anticancer activity IC50 (nM) ± SD, PC-3
[3] = tested on: SKBR-3 (human breast cancer cell line); test: cells; format: cell-based; details: for IC50: SRB assay, 72 h exposure, read-out: Anticancer activity IC50 (nM) ± SD, SKBR-3
[4] = tested on: U-87MG cells (glioblastoma cell line); test: cells; format: cell-based, human; details: for IC50: Homo sapiens, U-87 MG, SRB assay, 72 h exposure, read-out: Anticancer activity IC50 (nM) ± SD, U-87
[5] = tested on: SKBR-3, SKOV-3, PC-3, U-87 cells; test: SRB cytotoxicity assay, values summarised over cancer cell lines; format: cell-based, human
[6] = tested on: SKOV-3 (ovarian cancer cell line); test: cells; format: cell-based, human; details: Homo sapiens, SK-OV-3; SRB assay, 72 h exposure; read-out: Anticancer activity IC50 (nM) ± SD, SKOV-3
[7] = tested on: Human Dermal Fibroblasts cell line (HDF); details: read-out: Toxicity IC50 (nM) ± SD, HDF; healthy cell line HDF, SRB assay, 72 h exposure
[8] = Homo sapiens, SKBR-3, SKOV-3, PC-3, U-87, read-out: Anticancer IC50 over the studied cancer cell lines

SMILES | IC50 [1] | IC50 [2] | IC50 ([3]; Homo sapiens, SK-BR-3, 72 h) | IC50 [4] | IC50 [5, 8] | Selectivity indexes (SIs), all studied cancer cell lines ([5]; SI = IC50 HDF/IC50 cancer cell line) | IC50 ([5]; SKBR-3, SKOV-3, PC-3, U-87, read-out: Anticancer IC50 over the studied cancer cell lines) | IC50 [6] | Selectivity index (SI), SKBR-3 ([3]; SI = IC50 HDF/IC50 SKBR-3) | IC50 [3] | IC50 at 72 h ([1]; Human Dermal Fibroblasts (HDF) cells) | IC50 [7] | Selectivity index (SI), U-87 ([4]; SI = IC50 HDF/IC50 U-87) | IC50 ([5]; Homo sapiens, average over cancer cell lines, read-out: Average anticancer IC50)
C/C=C/COc1cc2c(ccc1=O)-c1c(cc(OC)c(OC)c1OC)CC[C@@H]2NC(C)=O [Compound 3e] | 2.13 ± 0.06 nM | 0.96 ± 0.01 nM | 0.94 ± 0.06 nM | 0.95 ± 0.01 nM | 0.94 to 0.98 nM | ~2.2 | ~0.9 nM | 0.98 ± 0.02 nM | – | – | – | – | – | –
COc1cc2c(c(OC)c1OC)-c1ccc(OCc3ccc(/C=C/c4cnc5ccccc5c4)cc3)c(=O)cc1[C@@H](NC(C)=O)CC2 [Compound 8c] | 2.77 ± 0.25 nM | 1.47 ± 0.05 nM | ~1 nM | 1.65 ± 0.03 nM | 1.03 to 1.73 nM | – | – | 1.41 ± 0.02 nM | ~2.6 | 1.05 ± 0.06 nM | – | – | – | –
COc1cc2c(c(OC)c1OC)-c1ccc(=O)c(OCc3cn(CCCNC4=C5C[C@@H](C)C[C@H](OC)[C@H](O)[C@@H](C)/C=C(\C)[C@H](OC(N)=O)[C@@H](OC)/C=C\C=C(/C)C(=O)NC(=CC4=O)C5=O)nn3)cc1[C@@H](NC(C)=O)CC2 [Compound 5f] | 10.4 ± 0.39 nM | 8.38 ± 0.09 nM | 8.91 ± 0.17 nM | 8.25 ± 0.11 nM | – | – | – | 8.05 ± 0.58 nM | – | – | – | – | – | –
COc1cc2c(c(OC)c1OC)-c1ccc(=O)c(OCc3cn(C4CC(n5cc(C)c(=O)[nH]c5=O)OC4CO)nn3)cc1C(NC(C)=O)CC2 (stereo not shown) [Compound 5e] | 6.22 ± 0.32 nM | 3.51 ± 0.09 nM | 3.71 ± 0.05 nM | 3.05 ± 0.01 nM | – | – | – | 3.74 ± 0.03 nM | – | – | – | – | – | –
COc1cc2c(c(OC)c1OC)-c1ccc(=O)c(OCc3ccc(/C=C/c4cnc5ccccc5c4)cc3)cc1[C@@H](NC(C)=O)CC2 [Compound 7c] | 2.16 ± 0.6 nM | 1.52 ± 0.01 nM | 1.51 ± 0.02 nM | 1.73 ± 0.09 nM | 1.03 to 1.73 nM | – | – | 1.03 ± 0.09 nM | – | – | – | – | – | –
C=CCCOc1cc2c(ccc1=O)-c1c(cc(OC)c(OC)c1OC)CC[C@@H]2NC(C)=O [Compound 3h] | 1.84 ± 0.11 nM | 1.53 ± 0.21 nM | 1.04 ± 0.33 nM | 1.06 ± 0.03 nM | – | – | – | 1.99 ± 0.07 nM | – | – | – | – | – | –
Nc1ccn([C@@H]2O[C@H](CO)[C@@H](O)[C@@H]2O)c(=O)n1 [C, cytarabine, reference compound] | – | 810 ± 10 nM | 870 ± 10 nM | 850 ± 31 nM | – | – | – | 990 ± 110 nM | – | – | 5940 ± 70 nM | – | – | –
COc1cc2c(c(OC)c1OC)-c1ccc(=O)c(OCc3ccc(I)cc3)cc1[C@@H](NC(C)=O)CC2 [Compound 3b] | 3.94 ± 0.27 nM | 2.94 ± 0.08 nM | 2.55 ± 0.12 nM | 2.47 ± 0.91 nM | – | – | – | 2.13 ± 0.4 nM | – | – | – | – | – | –
C=Cc1ccc(COc2ccc3c(cc2=O)[C@@H](NC(C)=O)CCc2cc(OC)c(OC)c(OC)c2-3)cc1 [Compound 4j] | 5.17 ± 0.28 nM | 3.05 ± 0.01 nM | 3.22 ± 0.36 nM | 3.11 ± 0.03 nM | – | – | – | 3.01 ± 0.04 nM | – | – | – | – | – | –
COc1cc2c(c(OC)c1OC)-c1ccc(OCCCN=[N+]=[N-])c(=O)cc1[C@@H](NC(C)=O)CC2 [Compound 4i] | 2.58 ± 0.12 nM | 1.49 ± 0.16 nM | 1.38 ± 0.03 nM | 1.19 ± 0.03 nM | – | – | – | 1.37 ± 0.09 nM | – | – | – | – | – | –
C=Cc1ccc(COc2cc3c(ccc2=O)-c2c(cc(OC)c(OC)c2OC)CC[C@@H]3NC(C)=O)cc1 [Compound 3j] | 5.38 ± 0.42 nM | 4.59 ± 0.03 nM | 4.19 ± 0.62 nM | 4.55 ± 0.06 nM | – | – | – | 4.55 ± 0.07 nM | – | – | – | – | – | –
C=CCOc1cc2c(ccc1=O)-c1c(cc(OC)c(OC)c1OC)CC[C@@H]2NC(C)=O [Compound 3d] | 2.83 ± 0.05 nM | 1.05 ± 0.01 nM | 1.09 ± 0.01 nM | 1.63 ± 0.04 nM | – | – | – | 1.68 ± 0.09 nM | – | – | – | – | – | –
COc1cc2c(c(OC)c1OC)-c1ccc(OCc3cn(C4CC(n5cc(C)c(=O)[nH]c5=O)OC4CO)nn3)c(=O)cc1C(NC(C)=O)CC2 (stereo not shown) [Compound 6e] | 5.18 ± 0.18 nM | 3.5 ± 0.49 nM | 3.02 ± 0.31 nM | 3.84 ± 0.02 nM | – | – | – | 3.33 ± 0.11 nM | – | – | – | – | – | –
COc1cc2c(c(OC)c1OC)-c1ccc(OCc3cn(Cc4ccc(C#N)cc4)nn3)c(=O)cc1[C@@H](NC(C)=O)CC2 [Compound 6b] | 5.83 ± 0.31 nM | 3.15 ± 0.04 nM | 3.06 ± 0.03 nM | 3.74 ± 0.06 nM | – | – | – | 3.97 ± 0.12 nM | – | – | – | – | – | –
COc1cc2c(c(OC)c1OC)-c1ccc(=O)c(OCc3cn(Cc4ccccc4)nn3)cc1[C@@H](NC(C)=O)CC2 [Compound 5a] | 5.28 ± 0.22 nM | 3.21 ± 0.15 nM | 3.07 ± 0.11 nM | 3.74 ± 0.19 nM | – | – | – | 3.28 ± 0.06 nM | – | – | – | – | – | –
COc1cc2c(c(OC)c1OC)-c1ccc(OCc3ccc(/C=C/c4ccc(CNC5=C6C[C@@H](C)C[C@H](OC)[C@H](O)[C@@H](C)/C=C(\C)[C@H](OC(N)=O)[C@@H](OC)/C=C\C=C(/C)C(=O)NC(=CC5=O)C6=O)cc4)cc3)c(=O)cc1[C@@H](NC(C)=O)CC2 [Compound 8d] | 17.9 ± 1.04 nM | 11 ± 0.44 nM | 11.4 ± 0.15 nM | 10.8 ± 0.74 nM | – | – | – | 10.52 ± 0.05 nM | – | – | – | – | – | –
C=CCOc1ccc2c(cc1=O)[C@@H](NC(C)=O)CCc1cc(OC)c(OC)c(OC)c1-2 [Compound 4d] | 2.39 ± 0.17 nM | 1.71 ± 0.03 nM | 1.73 ± 0.11 nM | 1.78 ± 0.03 nM | – | – | – | 1.73 ± 0.07 nM | – | – | – | – | – | –
COc1cc2c(c(OC)c1OC)-c1ccc(OCc3cn(Cc4ccccc4)nn3)c(=O)cc1[C@@H](NC(C)=O)CC2 [Compound 6a] | 3.88 ± 0.14 nM | 2.04 ± 0.44 nM | 2.33 ± 0.09 nM | 2.78 ± 0.05 nM | – | – | – | 2.79 ± 0.07 nM | – | – | – | – | – | –
COc1cc2c(c(OC)c1OC)-c1ccc(=O)c(OC/C=C/c3ccccc3)cc1[C@@H](NC(C)=O)CC2 [Compound 3c] | 5.24 ± 0.26 nM | 3.11 ± 0.91 nM | 3.09 ± 0.02 nM | 3.38 ± 0.05 nM | – | – | – | 3.74 ± 0.18 nM | – | – | – | – | – | –
COc1cc2c(c(OC)c1OC)-c1ccc(=O)c(OCc3cn([C@@H]4O[C@H](COC(C)=O)[C@@H](OC(C)=O)[C@H](OC(C)=O)[C@H]4NC(C)=O)nn3)cc1[C@@H](NC(C)=O)CC2 [Compound 5d] | 7.99 ± 0.04 nM | 6.39 ± 0.08 nM | 6.29 ± 0.25 nM | 6.11 ± 0.26 nM | – | – | – | 6.03 ± 0.19 nM | – | – | – | – | – | –
COc1cc2c(c(OC)c1OC)-c1ccc(OCc3ccc(/C=C/c4ccccn4)cc3)c(=O)cc1[C@@H](NC(C)=O)CC2 [Compound 8b] | 4 to 5 nM | 2.63 ± 0.77 nM | 2.77 ± 0.04 nM | 2.49 ± 0.05 nM | 2 to 2.5 nM | – | – | 2.84 ± 0.03 nM | – | – | – | 4.83 ± 0.27 nM | – | –
COc1cc2c(c(OC)c1OC)-c1ccc(=O)c(OCc3ccc(/C=C/c4ccccn4)cc3)cc1[C@@H](NC(C)=O)CC2 [Compound 7b] | 4 to 5 nM | 2.45 ± 0.52 nM | 2.09 ± 0.33 nM | 2.43 ± 0.12 nM | 2 to 2.5 nM | – | – | 2.69 ± 0.02 nM | – | – | – | 5.11 ± 0.85 nM | – | –
COc1cc2c(c(OC)c1OC)-c1ccc(OCc3cn(CCCNC4=C5C[C@@H](C)C[C@H](OC)[C@H](O)[C@@H](C)/C=C(\C)[C@H](OC(N)=O)[C@@H](OC)/C=C\C=C(/C)C(=O)NC(=CC4=O)C5=O)nn3)c(=O)cc1[C@@H](NC(C)=O)CC2 [Compound 6f] | 18 ± 0.24 nM | 17.84 ± 0.16 nM | 17.4 ± 0.64 nM | 17.3 ± 0.35 nM | – | – | – | 15.3 ± 0.31 nM | – | – | – | – | – | –
C=CCCOc1ccc2c(cc1=O)[C@@H](NC(C)=O)CCc1cc(OC)c(OC)c(OC)c1-2 [Compound 4h] | 2.71 ± 0.08 nM | 1.22 ± 0.03 nM | 1.69 ± 0.05 nM | 1.07 ± 0.12 nM | – | – | – | 1.27 ± 0.16 nM | – | – | – | – | ~2.5 | ~1.5 nM
